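How tested: cells in 96-well plates exposed to compound for 48 hours at five concentrations. TGI: total growth inhibition.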
Columns and labels:
Test in all cases: NCI tumour cell line growth inhibition, 48 h
DMS 114 small cell lung = tested on: DMS 114 small cell lung
DLD-1 colon = tested on: DLD-1 colon
XF 498 CNS = tested on: XF 498 CNS
SN12K1 renal = tested on: SN12K1 renal
P388/ADR leukemia = tested on: P388/ADR leukemia
P388 leukemia = tested on: P388 leukemia
HOP-18 NSCLC = tested on: HOP-18 NSCLC
RXF-631 renal = tested on: RXF-631 renal

| Compound | TGI (DMS 114 small cell lung) | TGI (DLD-1 colon) | TGI (XF 498 CNS) | TGI (SN12K1 renal) | TGI (P388/ADR leukemia) | TGI (P388 leukemia) | TGI (HOP-18 NSCLC) | TGI (RXF-631 renal) |
| --- | --- | --- | --- | --- | --- | --- | --- | --- |
| Cc1cn(C2CC(O)C(CO)O2)c(=O)[nH]c1=O (configuration not stated) | > 4670 µM | > 5000 µM | 366 µM | 4530 µM | 2650 µM | 1970 µM | > 5000 µM | – |
| CSc1nsc(-c2ccccc2)[s+]1 | – | > 100 µM | – | – | – | – | > 100 µM | > 100 µM |
| CCCSCC(P(=O)(O)O)P(=O)(O)O | > 100 µM | > 100 µM | > 100 µM | > 100 µM | > 100 µM | > 100 µM | > 100 µM | – |
